The record followed here is ChEMBL document CHEMBL1121688 (J Med Chem, 1981).

The target of assay [1] is Muscarinic acetylcholine receptor. The assay can be described thus: Concentration required (in vitro) to displace 50% specific binding of [3H]clozapine to Muscarinic acetylcholine receptor in rat brain. The class given is tissue-based.
A further assay deals with Dopamine receptor. Briefly: Relative affinity for dopamine receptor by displacement of [3H]spiroperidol (2.2 nM) from (in vitro) dopamine binding sites in rat caudate nuclei.
Assay [2] in a line: Concentration required (in vitro) to displace 50% specific binding of [3H]clozapine to non-muscarinic sites in rat brain in presence of 1 uM atropine. The class given is tissue-based.
Assay [3] is described as follows: Concentration required (in vitro) to displace 50% specific binding of [3H]clozapine to sites in rat brain.

With `CN1CCN(C2=Nc3cc(Cl)ccc3N(C)c3ccccc32)CC1`, the IC50 – broadly, the concentration needed to halve the response being measured – in assay [1] is 12 nM; on Dopamine receptor, 32400 nM; in assay [2] it was 88 nM.
Take `CC1CCN(C2=Cc3ccccc3Cc3ccc(Cl)cc32)CC1`: the IC50 in assay [1] and in assay [2] was greater than 10000 nM each time.
Take `CC1CCN(C2=Cc3cc(Cl)ccc3Cc3ccccc32)CC1`: the IC50 (in assay [1]; on Dopamine receptor; in assay [2]) was greater than 10000 nM each time.
As to `CN1CCN(C2=Cc3cc(Cl)ccc3Cc3ccccc32)CC1`, the IC50 in assay [1] was 670 nM; at Dopamine receptor, 342 nM; in assay [2] it was 13 nM.
On to `CN1CCC(C2=Cc3cc(Cl)ccc3Cc3ccccc32)CC1`, for which the IC50 stood at 622 nM in assay [1], 678 nM at Dopamine receptor and 7 nM in assay [2].
For `CN1CCN(C2=Cc3ccccc3Cc3ccc(Cl)cc32)CC1`, the IC50 was 290 nM in assay [1], 39 nM at Dopamine receptor and 10 nM in assay [2].
On the same counts, the results for `CN1CCN(C2=Cc3ccccc3Cc3ccccc32)CC1` are 610 nM, 808 nM and 3.7 nM.
Regarding `CN1CCN(C2=Nc3cc(Cl)ccc3Nc3ccccc32)CC1` [CLOZAPINE], the IC50 in assay [2] worked out at 13 nM.
For `CN1CCN(C2=Nc3ccccc3Nc3ccc(Cl)cc32)CC1` [ISOCLOZAPINE], the IC50 came to 17 nM in assay [3] and 758 nM on Dopamine receptor.
On to `CN1CCN(C2=Nc3cc(Cl)ccc3Oc3ccccc32)CC1` [ISOLOXAPINE], for which the IC50 in assay [1] turned out to be 49 nM; on Dopamine receptor it was 2480 nM; in assay [2], 38 nM.
